Reference: patent US20040072753A1, “Peptides for use in the treatment of alzheimer's disease” (priority 2000, published 2004)
One block for each compound: values may come before it. Where a SMILES comes first, the peptide text is derived from it. Where no end group is shown, it is not given here. [ ]: non-standard residue; d: D form. pS = N[C@@H](COP(=O)(O)O)C(=O)O

What was measured:
recombinant human cdc2 = recombinant human cdc2 (Homo sapiens, UniProt P06493); test: Binding of biotinylated Aβ peptides to recombinant human cdc2 coated plates (ELISA); conditions: for binding to human cdc2: biotinylated peptide 200 pM, 37° C. 4 hours
Chain of recombinant human cdc2 (P06493 whole entry): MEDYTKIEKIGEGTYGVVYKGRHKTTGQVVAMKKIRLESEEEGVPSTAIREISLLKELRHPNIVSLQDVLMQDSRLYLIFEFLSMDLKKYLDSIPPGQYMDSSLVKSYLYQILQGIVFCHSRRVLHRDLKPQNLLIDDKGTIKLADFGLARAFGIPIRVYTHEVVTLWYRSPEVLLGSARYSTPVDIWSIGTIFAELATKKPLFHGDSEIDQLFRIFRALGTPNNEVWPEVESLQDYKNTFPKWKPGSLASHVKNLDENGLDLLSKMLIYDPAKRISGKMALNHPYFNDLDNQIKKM
Procedure: After washing to remove unbound material, an alkaline phosphatase polymer-streptavidin conjugate (Sigma, Dorset, UK) was added and incubated at 37° C. for 2 hours.

[1] = target: T1, recombinant p34-cdc2/cyclin B1 (Homo sapiens, UniProt P06493); test: Phosphorylation of biotinylated Aβ peptides by recombinant p34-cdc2/cyclin B1 (32P incorporation); assay type: biochemical; conditions: for phosphorylation by cdc2 (incorporation of 32P from γ32P-ATP): 25 μM biotinylated peptide, 10 min at 30° C.
T1 construct: purchased Promega, UK
T1 sequence (P06493 whole entry): as above
T1 sequence (P14635 whole entry partner): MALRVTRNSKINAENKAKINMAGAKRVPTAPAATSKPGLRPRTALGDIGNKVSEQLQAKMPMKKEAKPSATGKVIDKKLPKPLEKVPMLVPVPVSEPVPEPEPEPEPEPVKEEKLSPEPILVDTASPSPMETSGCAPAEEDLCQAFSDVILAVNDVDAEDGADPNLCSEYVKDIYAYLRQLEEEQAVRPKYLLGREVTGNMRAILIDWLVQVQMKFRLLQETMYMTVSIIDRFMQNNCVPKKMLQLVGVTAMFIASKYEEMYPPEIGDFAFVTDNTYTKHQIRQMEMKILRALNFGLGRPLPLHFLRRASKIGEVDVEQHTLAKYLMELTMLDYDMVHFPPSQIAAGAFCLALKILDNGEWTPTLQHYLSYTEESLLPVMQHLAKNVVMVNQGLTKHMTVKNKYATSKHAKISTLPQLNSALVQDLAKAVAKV
Source text: (§1) The membrane was washed four times in 2 M NaCl, followed by four times in 2 M NaCl containing 1% (v/v) H3PO4 and finally twice in deionized H2O to remove unbound material.

[2] = system: SP2/0-Ag-14 mouse myeloma cells; test: Cytotoxicity of Aβ peptides, trypan blue dye exclusion; assay type: cell-based; conditions: test peptides 20 μM, 24 hours
Procedure: SP2/0-Ag-14 mouse myeloma cells were maintained in RPMI 1640 medium containing 10% fetal calf serum at 37° C. in a 5% CO2 humidified atmosphere. For cytotoxicity experiments 2×1 05 cells were plated in 24 well dishes in 1 ml PBS containing 0.1% BSA and test peptides (20 μM) for 24 hours. Cell viability was determined by trypan blue dye exclusion with at least 100 cells counted per well (Milton, Biochem. J. 344: 293-296 (1999)).

biotinylated Aβ 1-42 = biotinylated Aβ 1-42 (Homo sapiens, UniProt P05067); test: Binding of biotinylated Aβ 1-42 to CAβBP or EAβBP coated plates (ELISA, Scatchard); conditions: biotinylated peptide 200 pM
Chain of biotinylated Aβ 1-42 (P05067 672-713 limits assumed): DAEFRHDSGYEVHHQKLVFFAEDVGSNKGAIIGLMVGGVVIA
Procedure: After washing to remove unbound material, an alkaline phosphatase polymer-streptavidin conjugate (Sigma, Dorset, UK) was added and incubated at 37° C. for 2 hours. After washing to remove unbound material, p-nitrophenylphosphate substrate was added and absorbance at 405 nm determined.

biotinylated Aβ 25-35 = biotinylated Aβ 25-35 (Homo sapiens, UniProt P05067); test: Binding of biotinylated Aβ 25-35 to CAβBP or EAβBP coated plates (ELISA); conditions: biotinylated peptide 200 pM
Procedure: Biotinylated Aβ1-42, Aβ12-28 and Aβ 25-35 (from SEQ ID NO. 2) were prepared using a LinKit-Biolink kit (ISL, Paignton, UK). ELISA plates were coated with CAβBP (catalase residues 400409) or EAβBD (ERAB residues 99-108) (1 μg ml^−1) in carbonate buffer and unoccupied sites blocked with 5% (w/v) dried milk. Biotinylated peptides (200 pM) were incubated alone, with control peptides or with unlabelled Aβ peptides in PBS (containing 0.1% BSA and 0.05% Tween-20) at 37° C. for 4 hours. After washing to remove unbound material, an alkaline phosphatase polymer-streptavidin conjugate (Sigma, Dorset, UK) was added and incubated at 37° C. for 2 hours. After washing to remove unbound material, p-nitrophenylphosphate substrate was added and absorbance at 405 nm determined. Affinity constants were determined by incubating catalase or CAβBP coated plates with biotinylated peptides (200 pM) plus Aβ peptides over a range of concentrations (0-100 nM) and detection of bound peptides was carried out by ELISA.

[3] = target: T2, catalase EC 1.11.1.6 from human erythrocytes (Homo sapiens, UniProt P04040); test: Catalase enzyme activity, inhibition by Aβ peptides; assay type: biochemical; conditions: test peptides 2 μM
T2 construct: catalase EC 1.11.1.6 from human erythrocytes (Sigma, Dorset, UK) was used; purchased Sigma, Dorset, UK; host or cells: human erythrocytes
T2 sequence (P04040 2-527 limits assumed): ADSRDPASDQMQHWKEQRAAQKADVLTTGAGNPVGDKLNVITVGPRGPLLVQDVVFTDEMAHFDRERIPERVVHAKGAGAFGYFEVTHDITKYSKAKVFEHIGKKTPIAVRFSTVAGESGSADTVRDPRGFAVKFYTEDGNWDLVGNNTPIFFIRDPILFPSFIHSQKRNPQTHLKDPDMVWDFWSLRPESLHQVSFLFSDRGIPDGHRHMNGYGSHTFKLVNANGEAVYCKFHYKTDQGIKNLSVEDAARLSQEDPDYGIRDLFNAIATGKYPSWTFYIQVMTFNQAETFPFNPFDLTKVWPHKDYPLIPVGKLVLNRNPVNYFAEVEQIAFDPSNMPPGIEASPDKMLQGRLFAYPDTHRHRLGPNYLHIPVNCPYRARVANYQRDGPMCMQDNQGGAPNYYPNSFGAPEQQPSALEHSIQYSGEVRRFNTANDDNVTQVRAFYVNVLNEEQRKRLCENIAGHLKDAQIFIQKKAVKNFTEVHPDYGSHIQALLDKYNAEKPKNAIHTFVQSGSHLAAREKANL
Procedure: For catalase activity catalase EC 1.11.1.6 from human erythrocytes (Sigma, Dorset, UK) was used for all incubation experiments. Activity of Catalase (5kU I^−1) incubated with test peptides (2 μM) was determined after incubation in 60 mM sodium-potassium phosphate buffer at 37° C. in a total volume of 100 μl. After incubation catalase activity was determined by mixing 50 μl sample with 50 μl substrate (6.5 μmol H2O2 in phosphate buffer) for 60 secs, adding 100 μl of 32.4 mM ammonium molybdate and measurement of absorbance change at 405 nm. Catalase activity was calculated from a standard curve (0-10OkU I^−1) using purified human catalase of known activity (Milton, Biochem. J. 344: 293-296 (1999)).

Human NT-2 neurons [4] = test: Cytotoxicity assay, MTT reduction in human NT-2 neurons; assay type: cell-based; conditions: for effect on MTT utilisation: 24 h incubation
Procedure: In order to assess the effects of Aβ phosphorylation on the cytotoxic properties of Aβ peptides, a series of Aβ 17-35 derivatives were synthesised. The 17-35 region of Aβ contains the serine residue (serine 26) which is proposed to be phosphorylated by p34-cdc2, and also contains the ERAB binding (17-20) and cytotoxic domains (31-35) thought to play roles in Aβ cytotoxicity. The peptides were tested in a cytotoxicity assay as follows. Human NT-2 (NTera2/D1) precursor cells were propagated in DMEM/F12 medium supplemented with retinoic acid for 5-6 weeks prior to harvesting and replating in the presence of mitotic inhibitors, to generate post-mitotic Human NT-2 neurons. For cytotoxicity experiments, 5×10^3 cells/100 μl, medium were plated in Poly-D-lysine coated 96 well plates. Test peptides (20 μM) were added directly to culture medium prior to incubation for 24 h. Cell viability was determined by measurement of MTT (3-(4,5-dimethylthiazol-2-yl)-2,5-diphenyl tetrazolium bromide) reduction (Shearman, Methods Enzymol. 309: 716-723 (1999)). After incubation with peptides MTT (10 μl: 12 mM stock) was added and cells incubated for a further 4 hours. Cell lysis buffer [100 μl/well; 20% (v/v) SDS, 50% (v/v) N,N-dimethylformamide, pH 4.7] was added and, after repeated pipetting to lyse cells, calorimetric determination of MTT formazan product formation was determined by measuring the absorbance change at 540 nm. Control levels in the absence of peptide were taken as 100%, with the absorbance in the absence of cells taken as 0%.

Human NT-2 neurons [5] = test: Immunoassay of ir-pSAβ and ir-Aβ in extracts of NT-2 neurons exposed to Aβ 17-35 derivatives; assay type: cell-based; conditions: for levels of immunoreactive Aβ (ir-Aβ) in exposed cells: cell extracts; for ir-pSAβ in extracts of exposed cells: versus control cells
Procedure: To establish whether Aβ is phosphorylated in the Alzheimer's brain, Alzheimer disease brain sections were obtained from Novagen Inc (Madison, Wis., USA. Cat No: 70298-3; Lot No: A301036). Sections were deparaffinised and extracted in DEA buffer supplemented with 0.1 mM sodium vanadate. Extracts from NT-2 neurons were also prepared using the same buffer. Using a polyclonal anti-AB 15-30 antiserum plus Protein-A agarose, the Aβ was immunoprecipitated. The resultant extracts were further purified using a Sep-Pak C18 extraction step. Columns were pre-wetted with methanol and 0.5M acetic acid and the samples were applied in 20% acetonitrile in 0.1% TFA. […] After drying under a stream of nitrogen, samples were resuspended in appropriate buffer. For SDS-PAGE analysis, samples were resuspended in gel loading buffer and run on a 15% acrylamide gel. After immunoblotting onto nitrocellulose membranes, the blots were stained with anti-Aβ, anti-phosphoserine, anti-phosphotyrosine or anti-phosphothreonine antibodies. Bands were visualized with anti-mouse or anti-rabbit IgG-HRP conjugates and TMB membrane substrate. […] ELISA plates were coated with anti-phosphoserine antiserum for pSAβ determination and blocked with 5% dried milk. Samples or synthetic Aβ standards (Aβ 17-35 pS) were applied in PBS containing 0.1% BSA plus 0.05% Tween 20. Monoclonal antibody ALI-01 was added and incubated for 2 hrs. After washing to remove unbound material, ir-pSAβ was detected using an anti-rabbit IgG-HRP conjugate and TMB substrate. A similar assay in which the pS antibody was replaced with a polyclonal anti-Aβ antibody was used to measure Aβ levels.

cdc2/cyclin B1 = target: T3, cdc2/cyclin B1 (Homo sapiens, UniProt P06493+P14635); test: cdc2/cyclin B1 phosphorylation of biotinylated histone H1 substrate peptide; assay type: biochemical
T3 construct: purchased Promega, UK
T3 sequence (P06493 whole entry): as the sequence (P06493 whole entry) above
T3 sequence (P14635 whole entry): as the sequence (P14635 whole entry partner) above
Source text: as §1
Since Aβ binds to both the cdc2 and cyclin B1 components of the active enzyme it is possible that Aβ modulates the activity of the kinase.

inhibition of the binding of Aβ to cdc2 (recombinant human cdc2; biotinylated Aβ 1-40 (FIG. 5)): inhibited
inhibition of phosphorylation of Aβ [1]: inhibited
Compound: Aβ 17-28: Aβ fragment, residues 17-28 (LVFFAEDVGSNK)

Compound: CC(C)C[C@H](N)C(=O)N[C@@H](Cc1ccccc1)C(=O)N1CCC[C@H]1C(=O)N[C@@H](CCCNC(=N)N)C(=O)N[C@@H](Cc1ccc(O)cc1)C(=O)N[C@@H](Cc1ccc(O)cc1)C(=O)N1CCC[C@H]1C(=O)N[C@@H](CCC(=O)O)C(=O)N[C@@H](Cc1ccc(O)cc1)C(=O)N[C@@H](Cc1c[nH]cn1)C(=O)O [AβAS(F) 27-36] (H-LFPRYYPEYH-OH)
block of the cytotoxicity of Aβ 1-42 [2]: able to block
block of the cytotoxicity of Aβ fragments containing residues 25-35 [2]: able to block

Compound: C[C@H](NC(=O)CN)C(=O)N1CCC[C@H]1C(=O)N[C@@H](CC(N)=O)C(=O)N[C@@H](Cc1ccc(O)cc1)C(=O)N[C@@H](Cc1ccc(O)cc1)C(=O)N1CCC[C@H]1C(=O)N[C@@H](CC(N)=O)C(=O)N[C@@H](CO)C(=O)N[C@@H](Cc1ccccc1)C(=O)O [CAβBP]
binding of biotinylated Aβ 1-42 (biotinylated Aβ 1-42): specifically bound
binding of biotinylated Aβ 25-35 (biotinylated Aβ 25-35): specifically bound
block of the inhibition of catalase enzyme activity by Aβ 1-42 [3]: able to block
block of the inhibition of catalase enzyme activity by Aβ fragments containing residues 31-35 [3]: able to block
block of the cytotoxicity of Aβ 1-42 [2]: able to block
block of the cytotoxicity of Aβ fragments containing residues 31-35 [2]: able to block

Compound: Aβ 17-35 pS26: Aβ 17-35 peptide with a phosphorylated serine residue (LVFFAEDVG[pS]NKGAIIGLM; UniProt P05067 688-706, looked up, fragment)
potency in MTT reduction compared with the non-phosphorylated peptide (Human NT-2 neurons [4]): significantly more potent
effect on MTT utilisation (Human NT-2 neurons [4]): dose dependent reduction
levels of immunoreactive Aβ (ir-Aβ) in exposed cells (Human NT-2 neurons [5]): increased levels
ir-pSAβ in extracts of exposed cells (Human NT-2 neurons [5]): no difference to control cells

Compound: CC(C)C[C@H](NC(=O)[C@H](CC(C)C)NC(=O)[C@H](CCCNC(=N)N)NC(=O)[C@H](CCCCN)NC(=O)[C@H](CCCCN)NC(=O)[C@H](Cc1c[nH]cn1)NC(=O)[C@H](CC(N)=O)NC(=O)[C@H](Cc1ccccc1)NC(=O)[C@@H](NC(=O)[C@@H](N)C(C)C)C(C)C)C(=O)O [AβAS(F) 14-23] (H-VVFNHKKRLL-OH)
block of the cytotoxicity of Aβ 1-42 [2]: able to block
block of the cytotoxicity of Aβ fragments containing residues 17-35 [2]: able to block

Compound: Aβ 31-35: shortest cytotoxic form of Aβ (IIGLM)
effect on phosphorylation of the H1 peptide by cdc2/cyclin B1 (cdc2/cyclin B1): increased

Compound: PKTPKKAKKL (listed as Homo sapiens) [H1 peptide]
Km ([1]; substrate of cdc2/cyclin B1, read-out: Michaelis constant (KM) for the phosphorylation): 2700 nM

inhibition of phosphorylation of Aβ [1]: inhibited
Compound: CDKP1: synthetic peptide corresponding to cdc2 residues 119-133 (CHSRRVLHRDLKPQN)

binding to human cdc2 (recombinant human cdc2): binds to
phosphorylation by cdc2 (incorporation of 32P from γ32P-ATP) [1]: phosphorylated
Compound: Aβ 1-43: Amyloid-β 1-43 region, SEQ ID NO. 2

binding to human cdc2 (recombinant human cdc2): bound
phosphorylation by cdc2 (incorporation of 32P from γ32P-ATP) [1]: incorporated
Compound: Aβ 1-42: major form of Amyloid-β protein, residues 1-42

Compound: Aβ 17-35: Aβ fragment 17-35 containing serine 26, ERAB binding and cytotoxic domains (LVFFAEDVGSNKGAIIGLM)
effect on MTT utilisation (Human NT-2 neurons [4]): dose dependent reduction
levels of immunoreactive Aβ (ir-Aβ) in exposed cells (Human NT-2 neurons [5]): increased levels
ir-pSAβ in extracts of exposed cells (Human NT-2 neurons [5]): increased amounts
effect on phosphorylation of the H1 peptide by cdc2/cyclin B1 (cdc2/cyclin B1): increased

Compound: Aβ 17-35 S26A: Aβ 17-35 in which the serine residue for phosphorylation has been mutated to an alanine residue (LVFFAEDVGANKGAIIGLM; Amyloid-beta protein 42; UniProt P05067 688-706, looked up, variant S26A)
effect on MTT utilisation (Human NT-2 neurons [4]): no effect
levels of immunoreactive Aβ (ir-Aβ) in exposed cells (Human NT-2 neurons [5]): increased levels
ir-pSAβ in extracts of exposed cells (Human NT-2 neurons [5]): no difference to control cells
